Experimental data: publication PMC11458808, “Identification and development of a series of disubstituted piperazines for the treatment of Chagas disease” (European Journal of Medicinal Chemistry, 2022)
In brackets after ≈: the same amount, converted by molar mass.

Assays:
[1] = Intrinsic clearance in mouse liver microsomes; format: in vitro ADME; conditions: for Mouse CLi: mouse liver microsomal intrinsic clearance
Method: 2.2 Intrinsic clearance: This assay was conducted as previously described in [5].

[2] = Aqueous (kinetic) solubility by CAD; format: physicochemical; conditions: kinetic solubility measured by CAD
Method: 2.1 Aqueous solubility: This assay was conducted as previously described in [4].

[3] = ChromLogD pH7.4 (chromatographic hydrophobicity index); format: physicochemical; conditions: pH 7.4, CHIpH7.4 × 0.0857–2; for chromatographic logD: read-out: ChromlogDpH7.4
[4] = system: intracellular T. cruzi X10/7 A1 amastigotes; test: Intracellular T. cruzi assay; format: cell-based, Trypanosoma cruzi; conditions: for T. cruzi (pEC50) / EC50: potency against intracellular T. cruzi amastigotes, at least three independent replicates, standard deviations ≤0.2; for EC50: Trypanosoma cruzi, read-out: T. cruzi (pEC50) (converted)
Method: 1.1 Intracellular T. cruzi assay: Potency against intracellular T. cruzi X10/7 A1 amastigotes was determined as described previously with as sole modification that the compound treatment duration was increased from 72h to 96h.

| Molecule | Mouse CLi [1] [mL/min/g] | solubility [2] [µM] | chromatographic logD [3] | Clearance (mouse liver microsomal) [1] [mL/min/g] | ChromlogDpH7.4 [3] | T. cruzi (pEC50) [4] | EC50 [4] [µM] | Activity in the intracellular T. cruzi assay (in words) ([4]; purified compound) |
| --- | --- | --- | --- | --- | --- | --- | --- | --- |
| 4-methoxy-N-(4-((4-(1-methyl-4-oxo-1,4-dihydroquinoline-2-carbonyl)piperazin-1-yl)methyl)phenyl)benzenesulfonamide [Compound 27] | >50 | 29 | – | – | 5.4 | 5.4 | – | – |
| CS(=O)(=O)Nc1ccc(CN2CCN(C(=O)c3cccc(Cl)c3)CC2)cc1 [Compound 2, N-(4-((4-(3-chlorobenzoyl)piperazin-1-yl)methyl)phenyl)methanesulfonamide] | 2.6 | ≥ 470 | 4 | – | – | – | > 50.1 | complete loss of potency |
| O=C(c1cccc(Cl)c1)N1CCN(Cc2ccc(NS(=O)(=O)c3ccccc3)cc2)CC1 [Compound 3, N-(4-((4-(3-chlorobenzoyl)piperazin-1-yl)methyl)phenyl)benzenesulfonamide] | >50 | 67 (≈ 31.5 µg/mL) | 5.5 | – | – | – | 1.58 | – |
| COc1ccc(S(=O)(=O)Nc2ccc(CN3CCN(C(=O)c4cccc(Cl)c4)CC3)cc2)cc1 [Compound 4, N-(4-((4-(3-chlorobenzoyl)piperazin-1-yl)methyl)phenyl)-4-methoxybenzenesulfonamide] | >50 | 43 (≈ 21.5 µg/mL) | 5.6 | > 50 | – | – | 0.501 | – |
| N#Cc1ccc(S(=O)(=O)Nc2ccc(CN3CCN(C(=O)c4cccc(Cl)c4)CC3)cc2)cc1 [Compound 5, N-(4-((4-(3-chlorobenzoyl)piperazin-1-yl)methyl)phenyl)-4-cyanobenzenesulfonamide] | >50 | 54 (≈ 26.7 µg/mL) | 5.2 | – | – | – | 7.94 | – |
| O=C(c1cccc(Cl)c1)N1CCN(Cc2ccc(NS(=O)(=O)c3ccc4c(c3)OCO4)cc2)CC1 [Compound 6, N-(4-((4-(3-chlorobenzoyl)piperazin-1-yl)methyl)phenyl)benzo[d][1,3]dioxole-5-sulfonamide] | >50 | 33 (≈ 17 µg/mL) | 5.2 | – | – | – | 0.158 | – |
| O=C(c1cccc(Cl)c1)N1CCN(Cc2ccc(NS(=O)(=O)CC3CCCO3)cc2)CC1 (stereo not drawn) [Compound 7, N-(4-((4-(3-chlorobenzoyl)piperazin-1-yl)methyl)phenyl)-1-(tetrahydrofuran-2-yl)methanesulfonamide] | 44 | 486 (≈ 232 µg/mL) | 4.6 | – | – | – | 15.8 | – |
| O=C(c1cccc(Cl)c1)N1CCN(Cc2ccc(N3CCCCS3(=O)=O)cc2)CC1 [Compound 8, (3-chlorophenyl)(4-(4-(1,1-dioxido-1,2-thiazinan-2-yl)benzyl)piperazin-1-yl)methanone] | 21 | ≥ 402 | 5.1 | – | – | – | 25.1 | – |
| CN1CCN(S(=O)(=O)Nc2ccc(CN3CCN(C(=O)c4cccc(Cl)c4)CC3)cc2)CC1 [Compound 9, N-(4-((4-(3-chlorobenzoyl)piperazin-1-yl)methyl)phenyl)-4-methylpiperazine-1-sulfonamide] | 32 | ≥ 430 | 4.1 | – | – | – | 15.8 | – |
| COc1ccc(S(=O)(=O)Nc2ccc(CN3CCN(C(=O)c4ccccc4)CC3)cc2)cc1 [Compound 10, N-(4-((4-benzoylpiperazin-1-yl)methyl)phenyl)-4-methoxybenzenesulfonamide] | >50 | 116 (≈ 54 µg/mL) | 4.6 | – | – | – | 3.16 | – |
| COc1ccc(S(=O)(=O)Nc2ccc(CN3CCN(C(=O)c4cccc(F)c4)CC3)cc2)cc1 [Compound 11, N-(4-((4-(3-fluorobenzoyl)piperazin-1-yl)methyl)phenyl)-4-methoxybenzenesulfonamide] | >50 | 76 (≈ 36.8 µg/mL) | 4.8 | – | – | – | 0.631 | – |
| COc1ccc(S(=O)(=O)Nc2ccc(CN3CCN(C(=O)c4cccc(C)c4)CC3)cc2)cc1 [Compound 12] | – | 64 (≈ 30.7 µg/mL) | 5.1 | – | – | – | 1 | – |
| COc1ccc(S(=O)(=O)Nc2ccc(CN3CCN(C(=O)c4ccc(OC)c(Cl)c4)CC3)cc2)cc1 [Compound 13, N-[4-[[4-(3-chloro-4-methoxy-benzoyl)piperazin-1-yl]methyl]phenyl]-4-methoxy-benzenesulfonamide] | >50 | 18 (≈ 9.54 µg/mL) | 5.1 | – | – | – | 3.16 | – |
| COc1ccc(S(=O)(=O)Nc2ccc(CN3CCN(C(=O)c4cc(Cl)ccc4OC)CC3)cc2)cc1 [Compound 14, N-(4-((4-(5-chloro-2-methoxybenzoyl)piperazin-1-yl)methyl)phenyl)-4-methoxybenzenesulfonamide] | >50 | 27 (≈ 14.3 µg/mL) | 5.2 | – | – | – | 2 | – |
| Cc1ccc(S(=O)(=O)Nc2ccc(CN3CCN(C(=O)Cc4coc5ccccc45)CC3)cc2)cc1 [Compound 25] | >50 | 22 (≈ 11.1 µg/mL) | – | – | 5.7 | 5.2 | – | – |

Further lines, with some results ahead:

| Mouse CLi [1] [mL/min/g] | solubility [2] [µM] | chromatographic logD [3] | Clearance (mouse liver microsomal) [1] [mL/min/g] | Molecule | ChromlogDpH7.4 [3] | T. cruzi (pEC50) [4] | EC50 [4] [µM] | Activity in the intracellular T. cruzi assay (in words) ([4]; purified compound) |
| --- | --- | --- | --- | --- | --- | --- | --- | --- |
| >50 | 28 (≈ 13.9 µg/mL) | 5.7 | – | Cc1ccc(S(=O)(=O)Nc2ccc(CN(C)C3CCN(C(=O)c4cccc(Cl)c4)C3)cc2)cc1 (stereo in doubt) [Compound 34, (S)-N-(4-(((1-(3-chlorobenzoyl)pyrrolidin-3-yl)(methyl)amino)methyl)phenyl)-4-methylbenzenesulfonamide] | – | – | 10 | – |
| >50 | 13 (≈ 6.68 µg/mL) | 5.8 | – | COc1ccc(S(=O)(=O)Nc2ccc(CN3CCN(C(=O)c4ccc(C)c(Cl)c4)CC3)cc2)cc1 [Compound 15, N-(4-((4-(3-chloro-4-methylbenzoyl)piperazin-1-yl)methyl)phenyl)-4-methoxybenzenesulfonamide] | – | – | 1.26 | – |
| >50 | 171 (≈ 85.7 µg/mL) | 4.3 | – | COc1ccc(S(=O)(=O)Nc2ccc(CN3CCN(C(=O)c4cncc(Cl)c4)CC3)cc2)cc1 [Compound 16, N-(4-((4-(5-chloronicotinoyl)piperazin-1-yl)methyl)phenyl)-4-methoxybenzenesulfonamide] | – | – | 1 | – |
| 6.4 | 122 (≈ 63.9 µg/mL) | 4.9 | – | COc1ccc(S(=O)(=O)Nc2ccc(CN3CCN(C(=O)c4cc(C(F)(F)F)n[nH]4)CC3)cc2)cc1 [Compound 17, 4-methoxy-N-(4-((4-(5-(trifluoromethyl)-1H-pyrazole-3-carbonyl)piperazin-1-yl)methyl)phenyl)benzenesulfonamide] | – | – | 6.31 | – |
| <0.5 | ≥ 336 | 2.3 | – | COc1ccc(S(=O)(=O)Nc2ccc(CN3CCN(C(=O)Cn4cccnc4=O)CC3)cc2)cc1 [Compound 18, 4-methoxy-N-(4-((4-(2-(2-oxopyrimidin-1(2H)-yl)acetyl)piperazin-1-yl)methyl)phenyl)benzenesulfonamide] | – | – | > 50.1 | – |
| 12 | 414 (≈ 199 µg/mL) | 3.2 | – | COc1ccc(S(=O)(=O)Nc2ccc(CN3CCN(C(=O)c4ccnc(C)n4)CC3)cc2)cc1 [Compound 19, 4-methoxy-N-(4-((4-(2-methylpyrimidine-4-carbonyl)piperazin-1-yl)methyl)phenyl)benzenesulfonamide] | – | – | > 50.1 | – |
| 1.5 | ≥ 526 | 2.3 | – | COc1ccc(S(=O)(=O)Nc2ccc(CN3CCN(C(=O)C4CCCN(C)C4)CC3)cc2)cc1 (stereo not drawn) [Compound 20, 4-methoxy-N-(4-((4-(1-methylpiperidine-3-carbonyl)piperazin-1-yl)methyl)phenyl)benzenesulfonamide] | – | – | > 50.1 | – |
| 1.0 | ≥ 511 | 2.6 | – | COc1ccc(S(=O)(=O)Nc2ccc(CN3CCN(C(=O)C4CN(C(C)=O)C4)CC3)cc2)cc1 [Compound 21, N-(4-((4-(1-acetylazetidine-3-carbonyl)piperazin-1-yl)methyl)phenyl)-4-methoxybenzenesulfonamide] | – | – | > 50.1 | – |
| 8.0 | ≥ 374 | 4.3 | – | COc1ccc(S(=O)(=O)Nc2ccc(CN3CCN(C(=O)C4CC(O)(C(F)(F)F)C4)CC3)cc2)cc1 (stereo not drawn) [Compound 22, N-(4-((4-(3-hydroxy-3-(trifluoromethyl)cyclobutane-1-carbonyl)piperazin-1-yl)methyl)phenyl)-4-methoxybenzenesulfonamide] | – | – | > 50.1 | – |
| 40 | < 1 | 5.6 | – | Cc1ccc(S(=O)(=O)Nc2ccc(CN3CCN(C(=O)c4cc5ccccc5[nH]4)CC3)cc2)cc1 [Compound 23, N-(4-((4-(1H-indole-2-carbonyl)piperazin-1-yl)methyl)phenyl)-4-methylbenzenesulfonamide] | – | – | 0.2 | – |
| >50 | 35 (≈ 17.1 µg/mL) | 5.8 | – | Cc1ccc(S(=O)(=O)Nc2ccc(CN3CCN(C(=O)C4CCc5ccccc54)CC3)cc2)cc1 (stereo not drawn) [Compound 24, N-(4-((4-(2,3-dihydro-1H-indene-1-carbonyl)piperazin-1-yl)methyl)phenyl)-4-methylbenzenesulfonamide] | – | – | 3.98 | – |
